Results reported in patent publication CN112843052A, “新型表观遗传因子抑制剂2800z在制备抗肝癌药物增敏剂中的应用” (Hunan Normal University, priority 2021, dated 2021).

Columns and labels:
HEPG2 cells [HEPG2细胞] [1] = settings: known IC50 value of the chemotherapeutic drug; cell line not printed in the clause; cited from earlier work
[2] = system: mouse liver cancer (subcutaneous HEPG2 cells in nude mice) [小鼠肝癌]; assay: In vivo anti-liver-cancer experiment (体内抗肝癌实验), subcutaneous HEPG2 tumours in nude mice; settings: 14 days, i.p. three times per week for two weeks
HEPG2 cells [HEPG2细胞] [3] = assay: In vitro cytotoxicity experiment (体外细胞毒性实验); type: cell-based; settings: sorafenib 4 uM, 2800Z 60 uM, each alone or combined, 12, 24, 36 h
[4] = sorafenib 1 mg/kg, 2800Z 4 mg/kg, each alone or combined

In the case of `CNC(=O)c1cc(Oc2ccc(NC(=O)Nc3ccc(Cl)c(C(F)(F)F)c3)cc2)ccn1` [索拉菲尼, Sorafenib], the IC50 (HEPG2 cells [HEPG2细胞] [1]) is listed as 10 µM, the “liver cancer volume compared with the untreated group (in words)” value ([2]; sorafenib 1 mg/kg or 2800Z 4 mg/kg) is listed as “与未给药组的结果相近” and the “inhibition of mouse liver cancer (in words)” value [2, 4] is listed as “抑制作用较弱”. The “liver cancer (tumour) volume” value [2, 4] was about 1000 mm3 and the “cytotoxicity (in words)” value (HEPG2 cells [HEPG2细胞] [3]) was “细胞毒性较差”.
